Non-standard residues stand in square brackets, D forms with d. Residues, ends and D or L forms follow the SMILES beside them. No end group written: not given here.
How the values were obtained:
Format in all cases: cell-based
[1] = tested on: Staphylococcus aureus (ATCC 6538); assay: Disinfection Efficacy antimicrobial assay (ISO 14729), S. aureus; details: for biocidal effect on S. aureus (in words): 100 ug/mL
Method: (§1) Peptides were tested using a conventional Disinfection Efficacy antimicrobial assay (ISO 14729), commonly used in evaluating biocidal efficacy of preservatives for use in contact lens care solutions. Briefly, a known concentration of organisms are inoculated into the test solution, and allowed to incubate for a given amount of time, after which they are neutralized to inactivate the preservative. Samples are serially diluted and plated in duplicate onto petri plates onto which growth medium is poured. The plates are incubated at 35° C. (bacteria) or 25° C. (yeast and molds) for 48 hours. The average number of colony forming units is determined on countable plates (the dilution at which between 30 to 300 cfu/plate are observed, except when colonies are observed only on the −1 dilution plates). The log reduction resulting from exposure to the test solution is calculated based on the growth of positive controls plated simultaneously. Recovery controls, to confirm that the test solution is neutralized, and viability controls are also plated.
(§2) Method: The Disinfection Efficacy test was used with the following organisms: Staphylococcus aureus (ATCC 6538), Pseudomonas aeruginosa (ATCC 9027), Serratia marcesens (ATCC 13880), Candida albicans (ATCC 10231), and Fusarium solani (ATCC 36031). The peptides were diluted in water at a concentration of 100 ug/mL (adjusted for purity). Organism cultures were prepared to result in an inoculum concentration between 10^7 and 10^8 cfu/mL. The test solutions were inoculated for a 1 hour and a 3 hour exposure period, neutralized with DEB with 0.1% SLS added, and plated in duplicate.
(§3) Method: The Disinfection Efficacy test was used as in experiment 2 using Staphylococcus aureus and Pseudomonas aeruginosa. The peptides were diluted in water at concentrations of 100, 33.3, 10, 3.33, and 1 ug/mL. The test solutions were inoculated for 1 hour, neutralized, and plated in duplicate.

[2] = tested on: Serratia marcesens (ATCC 13880); assay: Disinfection Efficacy antimicrobial assay (ISO 14729), S. marcescens; details: Exp. 2, 1 hour exposure; for biocidal effect on S. marcescens (in words): 100 ug/mL
Method: as §1, §2

[3] = tested on: Pseudomonas aeruginosa (ATCC 9027); assay: Disinfection Efficacy antimicrobial assay (ISO 14729), P. aeruginosa; details: for biocidal effect on P. aeruginosa (in words): 100 ug/mL; for lowest concentration resulting in complete kill of P. aeruginosa: 1 hour, tested at 100, 33.3, 10, 3.33 and 1 ug/mL
Method: as §1, §2, §3

[4] = tested on: Fusarium solani (ATCC 36031); assay: Disinfection Efficacy antimicrobial assay (ISO 14729), F. solani; details: Exp. 2, 1 hour exposure; for biocidal effect on F. solani (in words): 100 ug/mL
Method: as §1, §2

[5] = tested on: Candida albicans (ATCC 10231); assay: Disinfection Efficacy antimicrobial assay (ISO 14729), C. albicans; details: Exp. 2, 1 hour exposure; for biocidal effect on C. albicans (in words): 100 ug/mL
Method: as §1
Method: Candida albicans (ATCC 10231) stock cultures were incubated and prepared to result in cell suspensions containing between 10^7 and 10^8 cfu/mL. The Disinfection Efficacy test, as described above, was used, with the following modification: Since the standard Dey-Engley broth used to neutralize preservatives was not necessarily expected to neutralize the peptide, 0.1% sodium laurel sulfate (SLS) was added to the neutralization solution. Controls confirmed that this was effective in neutralizing the peptide test solution.
as §2, with “The test solutions were inoculated for a 1 hour and a 3 hour exposure period, neutralized with DEB with 0.1% SLS added, and plated in duplicate.” left out

[6] = tested on: Staphylococcus aureus, Pseudomonas aeruginosa, Serratia marcesens, Candida albicans, Fusarium solani; assay: Disinfection Efficacy test, all 5 organisms of Experiment 2; details: Exp. 2; 100 ug/mL, one hour exposure
Method: as §1
Method: The Disinfection Efficacy test was used with the following organisms: Staphylococcus aureus (ATCC 6538), Pseudomonas aeruginosa (ATCC 9027), Serratia marcesens (ATCC 13880), Candida albicans (ATCC 10231), and Fusarium solani (ATCC 36031). The peptides were diluted in water at a concentration of 100 ug/mL (adjusted for purity). […]

[7] = Exp. 3, Conc. 3.33 μg/mL, T = 1 hr
[8] = Exp. 3, Conc. 33 μg/mL, T = 1 hr
[9] = Exp. 3, Conc. 100 μg/mL, T = 1 hr
[10] = Exp. 2, 100 ug/mL in water, 1 hour exposure

Compound | biocidal effect on S. aureus (in words) ([1]; Exp. 2, 1 hour exposure) | biocidal effect on S. marcescens (in words) [2] | biocidal effect on P. aeruginosa (in words) ([3]; Exp. 2, 1 hour exposure) | biocidal effect on F. solani (in words) [4] | biocidal effect on C. albicans (in words) [5] | lowest concentration resulting in complete kill of P. aeruginosa ([3]; Exp. 3) | average cfu/mL [3, 7] | average cfu/mL [3, 8] | average cfu/mL [3, 9] | also measured
C[C@@H](N)C(=O)N[C@H](CCCCN)C(=O)N[C@H](CCCNC(=N)N)C(=O)N[C@H](Cc1c[nH]cn1)C(=O)N[C@H](Cc1c[nH]cn1)C(=O)NCC(=O)N[C@H](Cc1ccc(O)cc1)C(=O)N[C@H](CCCCN)C(=O)N[C@H](CCCNC(=N)N)C(=O)N[C@H](CCCCN)C(=O)N[C@H](Cc1ccccc1)C(=O)N[C@H](Cc1c[nH]cn1)C(N)=O [P-113D] (H-[dA][dK][dR][dH][dH]G[dY][dK][dR][dK][dF][dH]-NH2; N-terminus and C-terminus assumed) | no effect | no effect | effective | effective | effective |  |  |  |  | 
AKRHHGYKRKFH-NH2 (C-terminus assumed) [P-113] | no effect | no effect | effective | effective | effective | 3.33 µg/mL | 5.00E+00 cfu/mL | 0.00E+00 cfu/mL | 0.00E+00 cfu/mL | effectiveness against S. aureus (in words) ([1]; Exp. 3, 1 to 100 ug/mL, 1 hour): not effective
FAKKFAKKFKKFAKKFAKFAFAF [D2A21] |  |  |  |  |  | 1 µg/mL | 0.00E+00 cfu/mL | 0.00E+00 cfu/mL | 0.00E+00 cfu/mL | average cfu/mL [1, 10]: 0.00E+00 cfu/mL; concentration achieving complete kill of S. aureus ([1]; Exp. 3, 1 hour, tested at 100, 33.3, 10, 3.33 and 1 ug/mL): 3.33 µg/mL; average cfu/mL [1, 7]: 0.00E+00 cfu/mL; average cfu/mL [1, 8]: 0.00E+00 cfu/mL; average cfu/mL [1, 9]: 0.00E+00 cfu/mL; kill of all 5 organisms (in words) [6]: complete kill; average cfu/mL ([2]; 100 ug/mL in water): 0.00E+00 cfu/mL; average cfu/mL [3, 10]: 0.00E+00 cfu/mL; average cfu/mL ([3]; Exp. 3, Conc. 1 μg/mL, T = 1 hr): 0.00E+00 cfu/mL; average cfu/mL ([3]; Exp. 3, Conc. 10 μg/mL, T = 1 hr): 0.00E+00 cfu/mL; average cfu/mL ([4]; 100 ug/mL in water): 0.00E+00 cfu/mL; average cfu/mL ([5]; 100 ug/mL in water): 0.00E+00 cfu/mL

From patent publication US20080167246A1, “Ophthalmic and Contact Lens Solutions Containing Peptides as Preservative” (BioConcept Laboratories, priority 2003, published 2008)
